In publication PMC11094793, “Discovery of LLC0424 as a Potent and Selective in Vivo NSD2 PROTAC Degrader” (Journal of Medicinal Chemistry, 2024):

Molecular target: T1, NSD2 (Homo sapiens, UniProt O96028, E1099K)
T1 construct: from tissue; host or cells: SEM subcutaneous xenograft tumours in CB17 SCID mice
T1 sequence (O96028 1-1365 E1099K): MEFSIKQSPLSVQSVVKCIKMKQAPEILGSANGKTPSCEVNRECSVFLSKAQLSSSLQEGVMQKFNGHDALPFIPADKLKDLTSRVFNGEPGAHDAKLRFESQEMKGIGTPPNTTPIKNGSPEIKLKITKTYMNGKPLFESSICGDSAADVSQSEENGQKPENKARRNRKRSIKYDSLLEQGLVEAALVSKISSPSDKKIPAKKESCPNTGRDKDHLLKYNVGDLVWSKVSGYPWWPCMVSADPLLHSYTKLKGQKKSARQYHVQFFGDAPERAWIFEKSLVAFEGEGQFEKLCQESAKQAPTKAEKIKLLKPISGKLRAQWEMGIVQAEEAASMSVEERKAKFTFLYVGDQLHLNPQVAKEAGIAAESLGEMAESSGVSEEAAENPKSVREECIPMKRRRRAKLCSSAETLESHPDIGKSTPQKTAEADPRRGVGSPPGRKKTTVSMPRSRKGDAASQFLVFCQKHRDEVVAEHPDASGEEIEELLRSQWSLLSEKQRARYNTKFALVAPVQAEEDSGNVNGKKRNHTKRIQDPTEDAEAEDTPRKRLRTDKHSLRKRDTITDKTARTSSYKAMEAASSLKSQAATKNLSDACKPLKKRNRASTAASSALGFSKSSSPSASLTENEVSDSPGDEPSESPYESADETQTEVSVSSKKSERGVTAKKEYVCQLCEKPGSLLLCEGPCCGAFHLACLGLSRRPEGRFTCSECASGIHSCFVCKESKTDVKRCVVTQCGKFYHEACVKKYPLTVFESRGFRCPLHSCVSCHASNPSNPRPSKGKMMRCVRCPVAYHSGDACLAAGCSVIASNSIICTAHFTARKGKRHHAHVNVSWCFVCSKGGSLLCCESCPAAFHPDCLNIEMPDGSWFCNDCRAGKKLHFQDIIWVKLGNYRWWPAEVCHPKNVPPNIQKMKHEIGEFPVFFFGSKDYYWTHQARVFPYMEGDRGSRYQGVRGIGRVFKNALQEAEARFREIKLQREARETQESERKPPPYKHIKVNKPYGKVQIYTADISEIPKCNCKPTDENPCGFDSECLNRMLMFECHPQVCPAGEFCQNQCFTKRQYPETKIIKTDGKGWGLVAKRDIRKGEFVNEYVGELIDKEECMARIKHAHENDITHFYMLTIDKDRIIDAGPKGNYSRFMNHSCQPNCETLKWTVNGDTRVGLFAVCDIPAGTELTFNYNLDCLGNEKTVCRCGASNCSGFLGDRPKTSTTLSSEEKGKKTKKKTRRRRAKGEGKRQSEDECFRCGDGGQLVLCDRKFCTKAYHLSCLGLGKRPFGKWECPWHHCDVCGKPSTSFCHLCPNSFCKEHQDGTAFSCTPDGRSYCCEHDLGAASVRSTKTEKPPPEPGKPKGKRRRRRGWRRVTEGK
Test: Pharmacodynamic assessment in SEM xenograft model (IHC, Western blot)
Assay type: in vivo, mice
Settings: 60 mg/kg iv, 5 consecutive days, versus vehicle
Description: We finally performed pharmacodynamic assessment of LLC0424 in both the SEM and 22RV1 xenograft model. Based on the solubility of LLC0424 and the tolerance of the mice, we chose 60 mg/kg as the dosage for the pharmacodynamic study. LLC0424 was administrated by intravenous (iv) or intraperitoneal (ip) injection at a dose of 60 mg/kg for 5 consecutive days. The tumor tissues were harvested at day 5 and subjected to histology and Western blot analysis (Figure 7A, and SI, Figure S6A).
First, 6–8 weeks old male CB17 severe combined immunodeficiency (SCID) mice were procured from the University of Michigan breeding colony. Subcutaneous tumors were established at both sides of the dorsal flank of mice. Tumors were measured at least biweekly using digital calipers following the formula (π/6) (L × W2), where L is length and W is width of the tumor. At the end of the studies, mice were sacrificed and tumors extracted. For each tumor, a part is […] followed by embedding in paraffin to make tissue blocks. The blocks were sectioned at […] for immunohistochemistry analysis. Another part is made into tissue lysates for Western blotting analysis. The University of Michigan Institutional Animal Care and Use Committee (IACUC) approved all in vivo studies. […]

NSD2 level in tumor tissue: significantly downregulated
Structure (SMILES): O=C1CCC(N2C(=O)c3ccc(N4CCC(NC(=O)c5ccc(NC(=O)c6ccc(CN(C(=O)c7ccc8c(c7)OCC(=O)N8)C7CC7)cc6)cc5)CC4)cc3C2=O)C(=O)N1 (stereo not shown) [compound 10l, N-Cyclopropyl-N-(4-((4-((1-(2-(2,6-dioxopiperidin-3-yl)-1,3-dioxoisoindolin-5-yl)piperidin-4-yl)carbamoyl)phenyl)carbamoyl)benzyl)-3-oxo-3,4-dihydro-2H-benzo[b][1,4]oxazine-7-carboxamide]
